Experimental data as given in paper PMC9034974, “Physicochemical characterization of the recombinant lectin scytovirin and microbicidal activity of the SD1 domain produced in rice against HIV-1” (Plant Cell Reports, 2022).

Experiments:
Type in all cases: binding
scytovirin (SVN) [1] = target: T1, scytovirin (SVN) (Scytonema varium, UniProt P86041); assay: differential scanning calorimetry; conditions: 10 mM sodium phosphate pH 7.4, 3 mM sodium azide; 20 µM protein, 60 °C/h; Tm of the complex, not a shift; free SVN in the 2nd table, row 3
T1 sequence (P86041 1-95): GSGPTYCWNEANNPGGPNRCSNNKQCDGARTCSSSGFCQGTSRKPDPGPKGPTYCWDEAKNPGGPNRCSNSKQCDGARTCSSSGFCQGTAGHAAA
Excerpt: differential scanning calorimetry on scytovirin (SVN)

scytovirin (SVN) [2] = target: T1, scytovirin (SVN); assay: isothermal titration calorimetry; conditions: 10 mM sodium phosphate pH 7.4, 3 mM sodium azide, 30 °C; one set of identical sites
Excerpt: isothermal titration calorimetry on scytovirin (SVN)

[3] = target: T2, SD1 (structural domain 1 of scytovirin) (Scytonema varium, UniProt P86041); assay: differential scanning calorimetry; conditions: 10 mM sodium phosphate pH 7.4, 3 mM sodium azide; 20 µM protein, 60 °C/h; shift is a decrease (destabilization)
T2 construct: isolated N-terminal domain SD1 (residues 1-48), recombinant from E. coli, purified
T2 sequence (P86041 1-48): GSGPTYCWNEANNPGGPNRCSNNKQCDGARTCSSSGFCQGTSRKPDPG

Tm °C (scytovirin (SVN) [1]) [°C] | Kd (scytovirin (SVN) [2]) [µM] | ΔTm [3] | Substance
56.50 ± 0.05 | 3.99 ± 0.93 | – | nonamannoside
– | 17.8 ± 2.75 | ~ 11.5 °C | tetramannoside
